Reference: article PMC12498411, “Antidepressant-like Properties of a Selenium-Containing Pyridinium Salt Explored through In Vitro, In Vivo, and In Silico Approaches” (ACS Chemical Neuroscience, 2025)

Legend:
[1] = tested on: cerebral lipid peroxidation; experiment: TBARS assay, SNP-induced lipid peroxidation in brain homogenate; assay type: biochemical, mouse; conditions: mouse brain homogenate, SNP-induced
Protocol: (§1) Brains from mice of both sexes were used for in vitro assays, each performed in duplicate across three independent experiments (n = 3), conducted on different days.
The brain tissues were homogenized in a 50 mM Tris-HCl buffer at pH 7.4, using a 1:10 ratio (w/v). The freshly prepared homogenate was then centrifuged at 900g for 10 min, yielding a low-speed supernatant (S1). Lipid peroxidation was evaluated using the TBARS method as previously described. Lipid peroxidation was induced by 0.3 mM SNP. A 100 μL aliquot of S1 was incubated for 1 h at 37 °C in the presence of the compounds 3A, 3B, and 3C at concentrations ranging from 25 to 500 μM, and SNP or water (to control). The color reaction was initiated by adding 500 μL of a 0.8% thiobarbituric acid (TBA) solution, followed by 200 μL of 8.1% sodium dodecyl sulfate (SDS) and 500 μL of acetic acid (pH 3.4). The reaction mixture was incubated at 95 °C for 1 h. The absorbance was measured using a spectrophotometer at a wavelength of 532 nm. Trolox (100 μM), an antioxidant analogous to vitamin E, served as a positive control. The results were reported as nmol TBARS per gram of tissue. A parallel TBARS experiment was also conducted using a standard alkyl aryl selenide (2-((phenylselanyl)-methyl)-pyridine), dissolved in DMSO at the same concentrations tested, ranging from 25 to 500 μM.

protein carbonylation = experiment: Protein carbonylation assay, SNP-induced, brain homogenate; assay type: biochemical, mouse; conditions: for IC50: mouse brain homogenate, SNP-induced, 25–200 μM; for Concentrations effective in reducing SNP-induced protein carbonylation: tested 25–200 μM
Protocol: as §1
The evaluation of protein carbonylation was performed according to a previously established protocol, using freshly prepared brain homogenate diluted at a 1:8 ratio in Tris-HCl buffer. Test compounds (10 μL), ranging in concentrations from 25 to 200 μM, were individually introduced into separate test tubes. Trolox (100 μM) served as the standard antioxidant. The diluted brain homogenate (940 μL) was then added to all tubes, followed by SNP (1 mM) as the inducing oxidative agent (50 μL). The tubes were promptly incubated at 37 °C for 2 h. Following incubation, 2 M HCl was added to blank tubes (200 μL), while 10 mM 2,4-dinitrophenyl-hydrazine (DNPH) solution was added to test tubes (200 μL). The mixture was incubated for 1 h in darkness at room temperature, with intermittent stirring every 15 min to facilitate the color reaction. Subsequently, 500 μL of denaturation buffer, 1.5 mL of ethanol, and 1.5 mL of hexane were added to all tubes, which were then vigorously shaken for 40 s. The tubes were then centrifuged at 900g for 15 min, and the supernatant was carefully decanted. The resulting pellet was washed twice with 1 mL of ethanol/ethyl acetate solution (1:1). After allowing the pellet to dry air for 2 min, it was resuspended in 1 mL of denaturation buffer and subjected to spectrophotometric analysis at 370 nm. The findings were quantified as nmol carbonyl per gram of tissue.

female Swiss mice = experiment: Acute oral toxicity, OECD Protocol 423 Acute Toxic Class Method; assay type: in vivo, mouse; conditions: for Food intake vs control: 50 mg/kg or 300 mg/kg; for Food intake vs control / Physical signs / Animal mortality: 14 days; for Plasma ALT activity / Plasma urea levels / Physical signs / Animal mortality: 50 and 300 mg/kg; for Physical signs / Animal mortality: gavage, female mice; for Animal mortality: single dose
Protocol: The evaluation of the acute toxicity of compounds 3A and 3B via oral administration was conducted in female Swiss mice, following the guidelines outlines in Protocol 423–OECD. The acute oral toxicity study of compound 3C was previously conducted by our research group, showing low toxicity and therefore was not evaluated here.
The animals were divided into 3 experimental groups (n = 6 mice/group) for each dosage testing: (I) Control, (II) Compound 3A, and (III) Compound 3B. Both compounds (3A and 3B) were administered at a single dose of 50 or 300 mg/kg via gavage, while control animals received water (vehicle). This high dose (300 mg/kg) was fractionated into three oral administrations of 100 mg/kg at a volume of 10 mL/kg with an interval of 30 min each. Over a period of 14 days, water and food consumption were monitored. In addition, changes in body weight and behavioral parameters such as lethargy, piloerection, and diarrhea were observed. Following this evaluation period, locomotion and exploration of the animals were assessed using the OFT. Subsequently, the animals were euthanized by an overdose of isoflurane, and blood, brain, liver, and kidney samples were collected for ex vivo analysis.
Blood plasma was used to assess liver and kidney function markers by quantifying the activity of AST and ALT, as well as urea levels, using commercially available kits (LABTEST; BIOCLIN). The brain, liver and kidneys were employed to investigate potential oxidative damage to lipids as a toxicity parameter utilizing the TBARS technique.
The aim of this behavioral test is to assess the locomotion and exploration behavior of the animals using an open field apparatus measuring 30 cm × 30 cm × 15 cm, constructed from plywood with a floor divided into nine quadrants, facilitating free movement for the animals. During the OFT, the animals were positioned in the center of the apparatus and subjected to a 5 min testing period, following the protocol outlined in literature. The number of quadrant crossings and rearings was recorded and quantified during testing phase.

| SMILES | IC50 [1] [µM] | IC50 (protein carbonylation) [µM] | Concentrations effective in reducing SNP-induced protein carbonylation (protein carbonylation) | Body weight at the last measurement (last day) vs control (female Swiss mice; 50 mg/kg) | Plasma AST activity (female Swiss mice; 50 mg/kg) | Water consumption vs control (female Swiss mice; 50 mg/kg) | Food intake vs control (female Swiss mice) | Water consumption vs control (female Swiss mice; 300 mg/kg) | Plasma ALT activity (female Swiss mice) | Plasma urea levels (female Swiss mice) | Physical signs (female Swiss mice) | Animal mortality (female Swiss mice) | Ex vivo lipid peroxidation (TBARS) in liver (female Swiss mice; 50 mg/kg) | Ex vivo lipid peroxidation (TBARS) in liver (female Swiss mice; 300 mg/kg) | Plasma AST activity (female Swiss mice; 300 mg/kg) |
| --- | --- | --- | --- | --- | --- | --- | --- | --- | --- | --- | --- | --- | --- | --- | --- |
| O=C(C[n+]1ccccc1C[Se]c1ccccc1)c1ccccc1.[Br-] [Compound 3A, 1-(2-oxo-2-phenylethyl)-2-((phenylselanyl)methyl)pyridin-1-ium bromide] | 150 | 130 | all concentrations | reduction in body weight | did not affect AST activity | decreased | ate similar to the control group | no significant difference | remained unchanged | remained similar | did not indicate any observable changes | no instances of animal mortality | – | – | – |
| Cc1ccc(C(=O)C[n+]2ccccc2C[Se]c2ccccc2)cc1 [Compound 3B, 1-(2-oxo-2-(p-tolyl)ethyl)-2-((phenylselanyl)methyl)pyridin-1-ium bromide] | 130 | 230 | 200 µM | did not differ significantly | did not affect AST activity | – | ate similar to the control group | no significant difference | remained unchanged | remained similar | did not indicate any observable changes | no instances of animal mortality | an increase in damage was observed | not evident at the higher dose | an increase was observed |
